The values that follow come from patent publication US7087649B2, “Methods for preventing and treating diseases and conditions associated with cellular stress” (Eisai Co., Ltd., priority 2001, dated 2006).

The conditions of data set [1]: cited from earlier work.
For data set [2] the following is noted: cited from earlier work. This is another data set of the same source.
A further data set relates to hangover. The data set is described as follows: clinical self-experiment on hangover symptoms after alcohol consumption. It counts as in vivo, human. The settings on record: one inventor on themself; 50 mg orally (capsule) just prior to drinking, 50 mg during, 50 mg next morning; total 150 mg in fourteen hours. The text has this:
The invention is based, in part, on a clinical experiment that an inventor of the invention described herein conducted on themself using SELBEX® (geranylgeranylacetone). On one occasion in the evening, they consumed an excessive amount of alcoholic beverages and awoke the following morning experiencing abdominal discomfort, nausea, fatigue, and headache. The normal measures that they had taken in the past to ameliorate hangover provided little relief. They decided that on the next occasion on which they would be drinking alcoholic beverages, they would ingest SELBEX® (geranylgeranylacetone) to determine whether it provided relief. Thus, on a subsequent evening, just prior to the drinking of alcoholic beverages, they ingested 50 mg of SELBEX® (geranylgeranylacetone) orally, in the form of a capsule marketed commercially by Eisai Co., Ltd. During the course of the evening, as they continued drinking alcoholic beverages, they ingested an additional 50 mg of SELBEX® (geranylgeranylacetone) orally. The next morning when they awoke, they ingested an additional 50 mg of SELBEX® (geranylgeranylacetone), bringing the total ingested during a fourteen hour period to 150 mg.

For the molecule `CC(=O)CC/C=C(\C)CC/C=C(\C)CC/C=C(\C)CCC=C(C)C` [SELBEX® (geranylgeranylacetone), 3:2 (5E:5Z) geometrical mixture of (9E,13E)-6,10,14,18-tetramethyl-5,9,13,17-nonadecatetraen-2-one], in data set [1] (methanol, ethanol, acetone, chloroform, and hexane), the “miscibility with organic solvents” value is recorded as “miscible”. Moreover, in data set [1] (water), the solubility in water entry is listed as “practically insoluble”. Besides, the stability to air result in data set [2] was “affected by air”. Moreover, the “symptoms of hangover (abdominal discomfort, nausea, fatigue, and headache)” value in the data set with hangover is listed as “either abolished or markedly alleviated”.
